assay: Inhibition of rabbit recombinant GSK3-beta; set-up: species or system Oryctolagus cuniculus

Row | SMILES | IC50 [µM]
1 | Cn1sc(NCc2ccccc2)nc1=O | 20
2 | O=C(/N=c1\s[nH]c(=O)n1Cc1ccccc1)c1ccccc1 | > 100
3 | CCOC(=O)c1nsc(-c2ccccc2)n1 | > 100
4 | Cn1sc(Nc2ccccc2)nc1=O | 12.5
5 | c1ccc(-c2nsc(-c3ccccc3)n2)cc1 | > 100
6 | CCOC(=O)c1nc(-c2cc(C(C)(C)C)c(O)c(C(C)(C)C)c2)ns1 | > 100
7 | Cn1s/c(=N\C(=O)c2ccccc2)n(CC#N)c1=O | > 100
8 | CNc1nc(=O)n(C)s1 | 18
9 | Nc1nc(=O)[nH]s1 | 25
10 | Cn1s/c(=N\C(=O)c2ccccc2)n(CC(=O)O)c1=O | > 100
11 | Cn1sc(NCCc2ccccc2)nc1=O | 15
12 | CCOC(=O)Nc1nc(=O)n(C)s1 | > 100
13 | CCOC(=O)Cn1c(-c2ccc(C)cc2)nsc1=O | > 100
14 | N#CCn1s/c(=N\C(=O)c2ccccc2)n(CC#N)c1=O | > 100
15 | CCOC(=O)c1nc(-c2ccc(OC)cc2)ns1 | > 100
16 | Cn1sc(Nc2ccc(Br)cc2)nc1=O | 15
17 | CCOC(=O)Cn1c(=O)n(C)s/c1=N\Cc1ccccc1 | > 100
18 | O=C(O)Cn1c(=O)n(Cc2ccccc2)s/c1=N\C(=O)c1ccccc1 | > 100
19 | CCOC(=O)c1nc(-c2ccc(Cl)cc2)ns1 | > 100
20 | CC(=O)Nc1nsc(NC(C)=O)n1 | > 100
21 | Cn1sc(NCCO)nc1=O | > 100
22 | Cc1ccc(-c2nsc(S(=O)(=O)c3ccc(C)cc3)n2)cc1 | > 100
23 | CCNc1nsc(NCC)n1 | > 100

Row | SMILES | IC50 [µM]
24 | Cn1s/c(=N\C(=O)c2ccccc2)n(Cc2ccccc2)c1=O | > 100
25 | N#CCn1c(=O)[nH]s/c1=N\C(=O)c1ccccc1 | > 100
26 | CCOC(=O)Cn1c(=O)n(Cc2ccccc2)s/c1=N\C(=O)c1ccccc1 | > 100
27 | Cc1ccc(-c2nsc(=O)[nH]2)cc1 | > 100
28 | Cn1sc(N)nc1=O | 40
29 | O=C(/N=c1\sn(Cc2ccccc2)c(=O)n1Cc1ccccc1)c1ccccc1 | > 100
30 | Cn1s/c(=N\C(=O)c2ccccc2)n(C)c1=O | > 100
31 | Cn1sc(NC(=O)c2ccccc2)nc1=O | > 100
32 | O=C(Nc1nc(=O)n(Cc2ccccc2)s1)c1ccccc1 | > 100
33 | ClCc1nc(-c2ccccc2)ns1 | > 100
34 | Cn1s/c(=N\Cc2ccccc2)n(Cc2ccccc2)c1=O | > 100
35 | CCOC(=O)c1nc(-c2ccccc2)ns1 | > 100
36 | Cn1s/c(=N\c2ccc(Br)cc2)n(C)c1=O | > 100
37 | Cn1sc(NCC(=O)O)nc1=O | 75
38 | Cc1ccccc1-c1nsc(=O)[nH]1 | > 100
39 | CCOC(=O)c1nc(-c2ccc([N+](=O)[O-])cc2)ns1 | > 100
40 | CCOC(=O)Cn1c(=O)n(C)s/c1=N\C(=O)c1ccccc1 | > 100
41 | CCOC(=O)CNc1nc(=O)n(C)s1 | 20
42 | O=c1nc(NCc2ccccc2)s[nH]1 | 6.5
43 | c1ccc(Nc2nsc(Nc3ccccc3)n2)cc1 | > 100
44 | c1cc(Nc2nsc(Nc3ccncc3)n2)ccn1 | > 100
45 | O=C(Nc1nc(=O)[nH]s1)c1ccccc1 | > 100
46 | O=c1nc(NCc2ccccc2)sn1Cc1ccccc1 | > 100
